According to patent publication US9999619B2, “Piperidin-4-yl azetidine derivatives as JAK1 inhibitors” (Incyte Corporation, priority 2010, dated 2018):

How the values were obtained:
Assay type in all cases: biochemical
[1] = molecular target: human JAK1 (a.a. 837-1142) (Homo sapiens, UniProt P23458); experiment: In vitro JAK kinase assay (HTRF, phosphorylation of a biotinylated peptide), JAK1; details: measured at 1 mM ATP
Method in brief: (§1)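 N-terminal His-tagged catalytic domains, baculovirus-expressed in insect cells, phosphorylated a biotinylated peptide for 1 hr at room temperature. EDTA stop was followed by SA-APC and Eu-Py20 antibody for 40 minutes, with phosphopeptide read by HTRF.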

[2] = molecular target: human JAK1 (a.a. 837-1142); experiment: as above; details: ratio of JAK2 IC50 to JAK1 IC50, measured at 1 mM ATP
Method in brief: as §1

Jak2 (a.a. 828-1132) = Jak2 (a.a. 828-1132) (Homo sapiens (Human), UniProt O60674); experiment: In vitro JAK kinase assay (HTRF, phosphorylation of a biotinylated peptide), JAK2; details: measured at 1 mM ATP
Sequence of Jak2 (a.a. 828-1132) (O60674 828-1132): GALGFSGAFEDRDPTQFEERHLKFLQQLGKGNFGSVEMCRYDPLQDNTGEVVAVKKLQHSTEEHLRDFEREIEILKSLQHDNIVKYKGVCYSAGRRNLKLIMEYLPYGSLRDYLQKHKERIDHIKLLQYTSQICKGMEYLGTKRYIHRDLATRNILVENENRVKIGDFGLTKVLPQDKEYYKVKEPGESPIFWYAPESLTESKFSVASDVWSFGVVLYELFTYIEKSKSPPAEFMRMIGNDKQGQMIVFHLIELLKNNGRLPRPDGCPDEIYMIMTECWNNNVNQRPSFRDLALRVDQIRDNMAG
Method in brief: as §1

IC50 [1] [nM]	IC50 Ratio JAK2/JAK1 [2]	IC50 (Jak2 (a.a. 828-1132)) [nM]	SMILES
≤ 5	4.2	≤ 10	Cc1cc(C(=O)N2CCC(N3CC(CC#N)(n4cc(-c5ncnc6[nH]ccc56)cn4)C3)CC2)cs1 [Example 73, {1-{1-[(5-methyl-3-thienyl)carbonyl]piperidin-4-yl}-3-[4-(7H-pyrrolo[2,3-d]pyrimidin-4-yl)-1H-pyrazol-1-yl]azetidin-3-yl}acetonitrile]
≤ 5	6.5	10 to 50	N#CCC1(n2cc(-c3ncnc4[nH]ccc34)cn2)CN(C2CCN(C(=O)c3ccc(O)c(Cl)c3)CC2)C1 [Example 84, {1-[1-(3-chloro-4-hydroxybenzoyl)piperidin-4-yl]-3-[4-(7H-pyrrolo[2,3-d]pyrimidin-4-yl)-1H-pyrazol-1-yl]azetidin-3-yl}acetonitrile]
≤ 5	0.3	≤ 10	N#CCC1(n2cc(-c3ncnc4[nH]ccc34)cn2)CN(C2CCN(C(=O)c3cccc4ccccc34)CC2)C1 [Example 87, {1-[1-(1-naphthoyl)piperidin-4-yl]-3-[4-(7H-pyrrolo[2,3-d]pyrimidin-4-yl)-1H-pyrazol-1-yl]azetidin-3-yl}acetonitrile]
5 to 20	0.9	≤ 10	N#CCC1(n2cc(-c3ncnc4[nH]ccc34)cn2)CN(C2CCN(C(=O)c3cnc4ccccc4c3)CC2)C1 [Example 88, {3-[4-(7H-pyrrolo[2,3-d]pyrimidin-4-yl)-1H-pyrazol-1-yl]-1-[1-(quinolin-3-ylcarbonyl)piperidin-4-yl]azetidin-3-yl}acetonitrile]
≤ 5	2.6	≤ 10	N#CCC1(n2cc(-c3ncnc4[nH]ccc34)cn2)CN(C2CCN(C(=O)c3ccc4ncccc4c3)CC2)C1 [Example 89, {3-[4-(7H-pyrrolo[2,3-d]pyrimidin-4-yl)-1H-pyrazol-1-yl]-1-[1-(quinolin-6-ylcarbonyl)piperidin-4-yl]azetidin-3-yl}acetonitrile]
≤ 5	1.5	≤ 10	N#CCC1(n2cc(-c3ncnc4[nH]ccc34)cn2)CN(C2CCN(C(=O)c3cc4ccccc4s3)CC2)C1 [Example 90, {1-[1-(1-benzothien-2-ylcarbonyl)piperidin-4-yl]-3-[4-(7H-pyrrolo[2,3-d]pyrimidin-4-yl)-1H-pyrazol-1-yl]azetidin-3-yl}acetonitrile]
≤ 5	0.5	≤ 10	N#CCC1(n2cc(-c3ncnc4[nH]ccc34)cn2)CN(C2CCN(C(=O)c3csc4ccccc34)CC2)C1 [Example 96, {1-[1-(1-benzothien-3-ylcarbonyl)piperidin-4-yl]-3-[4-(7H-pyrrolo[2,3-d]pyrimidin-4-yl)-1H-pyrazol-1-yl]azetidin-3-yl}acetonitrile]

More lines, now with the values behind:

SMILES	IC50 [1] [nM]	IC50 Ratio JAK2/JAK1 [2]	IC50 (Jak2 (a.a. 828-1132)) [nM]
COc1cscc1C(=O)N1CCC(N2CC(CC#N)(n3cc(-c4ncnc5[nH]ccc45)cn3)C2)CC1 [Example 72, {1-{1-[(4-methoxy-3-thienyl)carbonyl]piperidin-4-yl}-3-[4-(7H-pyrrolo[2,3-d]pyrimidin-4-yl)-1H-pyrazol-1-yl]azetidin-3-yl}acetonitrile]	≤ 5	6.6	≤ 10
COc1c(C(=O)N2CCC(N3CC(CC#N)(n4cc(-c5ncnc6[nH]ccc56)cn4)C3)CC2)csc1Cl [Example 74, {1-{1-[(5-chloro-4-methoxy-3-thienyl)carbonyl]piperidin-4-yl}-3-[4-(7H-pyrrolo[2,3-d]pyrimidin-4-yl)-1H-pyrazol-1-yl]azetidin-3-yl}acetonitrile]	≤ 5	3.8	10 to 50
N#CCC1(n2cc(-c3ncnc4[nH]ccc34)cn2)CN(C2CCN(C(=O)c3ccsc3Br)CC2)C1 [Example 75, {1-{1-[(2-bromo-3-thienyl)carbonyl]piperidin-4-yl}-3-[4-(7H-pyrrolo[2,3-d]pyrimidin-4-yl)-1H-pyrazol-1-yl]azetidin-3-yl}acetonitrile]	≤ 5	3.4	≤ 10
N#CCC1(n2cc(-c3ncnc4[nH]ccc34)cn2)CN(C2CCN(C(=O)c3sccc3Cl)CC2)C1 [Example 76, {1-{1-[(3-chloro-2-thienyl)carbonyl]piperidin-4-yl}-3-[4-(7H-pyrrolo[2,3-d]pyrimidin-4-yl)-1H-pyrazol-1-yl]azetidin-3-yl}acetonitrile]	≤ 5	5.5	≤ 10
N#CCC1(n2cc(-c3ncnc4[nH]ccc34)cn2)CN(C2CCN(C(=O)c3ccc(Cl)s3)CC2)C1 [Example 77, {1-{1-[(5-chloro-2-thienyl)carbonyl]piperidin-4-yl}-3-[4-(7H-pyrrolo[2,3-d]pyrimidin-4-yl)-1H-pyrazol-1-yl]azetidin-3-yl}acetonitrile]	≤ 5	5.5	≤ 10
Cc1ccsc1C(=O)N1CCC(N2CC(CC#N)(n3cc(-c4ncnc5[nH]ccc45)cn3)C2)CC1 [Example 78, {1-{1-[(3-methyl-2-thienyl)carbonyl]piperidin-4-yl}-3-[4-(7H-pyrrolo[2,3-d]pyrimidin-4-yl)-1H-pyrazol-1-yl]azetidin-3-yl}acetonitrile]	≤ 5	5.4	10 to 50
Cc1ccc(C(=O)N2CCC(N3CC(CC#N)(n4cc(-c5ncnc6[nH]ccc56)cn4)C3)CC2)s1 [Example 80, {1-{1-[(5-methyl-2-thienyl)carbonyl]piperidin-4-yl}-3-[4-(7H-pyrrolo[2,3-d]pyrimidin-4-yl)-1H-pyrazol-1-yl]azetidin-3-yl}acetonitrile]	≤ 5	4.1	≤ 10
COc1ccsc1C(=O)N1CCC(N2CC(CC#N)(n3cc(-c4ncnc5[nH]ccc45)cn3)C2)CC1 [Example 81, {1-{1-[(3-methoxy-2-thienyl)carbonyl]piperidin-4-yl}-3-[4-(7H-pyrrolo[2,3-d]pyrimidin-4-yl)-1H-pyrazol-1-yl]azetidin-3-yl}acetonitrile]	≤ 5	4.2	≤ 10
N#CCC1(n2cc(-c3ncnc4[nH]ccc34)cn2)CN(C2CCN(C(=O)c3ccc(C(F)(F)F)cc3F)CC2)C1 [Example 82, {1-{1-[2-fluoro-4-(trifluoromethyl)benzoyl]piperidin-4-yl}-3-[4-(7H-pyrrolo[2,3-d]pyrimidin-4-yl)-1H-pyrazol-1-yl]azetidin-3-yl}acetonitrile]	≤ 5	5.3	≤ 10
N#CCC1(n2cc(-c3ncnc4[nH]ccc34)cn2)CN(C2CCN(C(=O)c3c(F)cc(C#N)cc3F)CC2)C1 [Example 83, 4-[(4-{3-(cyanomethyl)-3-[4-(7H-pyrrolo[2,3-d]pyrimidin-4-yl)-1H-pyrazol-1-yl]azetidin-1-yl}piperidin-1-yl)carbonyl]-3,5-difluorobenzonitrile]	≤ 5	5.8	10 to 50
N#CCC1(n2cc(-c3ncnc4[nH]ccc34)cn2)CN(C2CCN(C(=O)c3cncc(C(F)(F)F)n3)CC2)C1 [Example 86, [3-[4-(7H-pyrrolo[2,3-d]pyrimidin-4-yl)-1H-pyrazol-1-yl]-1-(1-{[6-(trifluoromethyl)pyrazin-2-yl]carbonyl}piperidin-4-yl)azetidin-3-yl]acetonitrile]	≤ 5	19.4	50 to 100
N#CCC1(n2cc(-c3ncnc4[nH]ccc34)cn2)CN(C2CCN(C(=O)c3sc4cc(F)ccc4c3Cl)CC2)C1 [Example 91, {1-{1-[(3-chloro-6-fluoro-1-benzothien-2-yl)carbonyl]piperidin-4-yl}-3-[4-(7H-pyrrolo[2,3-d]pyrimidin-4-yl)-1H-pyrazol-1-yl]azetidin-3-yl}acetonitrile]	≤ 5	1.7	≤ 10
N#CCC1(n2cc(-c3ncnc4[nH]ccc34)cn2)CN(C2CCN(C(=O)c3sc4cccc(F)c4c3Cl)CC2)C1 [Example 92, {1-{1-[(3-chloro-4-fluoro-1-benzothien-2-yl)carbonyl]piperidin-4-yl}-3-[4-(7H-pyrrolo[2,3-d]pyrimidin-4-yl)-1H-pyrazol-1-yl]azetidin-3-yl}acetonitrile]	≤ 5	2.8	≤ 10
N#CCC1(n2cc(-c3ncnc4[nH]ccc34)cn2)CN(C2CCN(C(=O)c3cc4c(C(F)(F)F)cccc4s3)CC2)C1 [Example 93, [3-[4-(7H-pyrrolo[2,3-d]pyrimidin-4-yl)-1H-pyrazol-1-yl]-1-(1-{[4-(trifluoromethyl)-1-benzothien-2-yl]carbonyl}piperidin-4-yl)azetidin-3-yl]acetonitrile]	≤ 5	1.5	≤ 10
N#CCC1(n2cc(-c3ncnc4[nH]ccc34)cn2)CN(C2CCN(C(=O)c3cc4ccc(C(F)(F)F)cc4s3)CC2)C1 [Example 94, [3-[4-(7H-pyrrolo[2,3-d]pyrimidin-4-yl)-1H-pyrazol-1-yl]-1-(1-{[6-(trifluoromethyl)-1-benzothien-2-yl]carbonyl}piperidin-4-yl)azetidin-3-yl]acetonitrile]	5 to 20	1.0	10 to 50
N#CCC1(n2cc(-c3ncnc4[nH]ccc34)cn2)CN(C2CCN(C(=O)c3cc4cccc(C(F)(F)F)c4s3)CC2)C1 [Example 95, [3-[4-(7H-pyrrolo[2,3-d]pyrimidin-4-yl)-1H-pyrazol-1-yl]-1-(1-{[7-(trifluoromethyl)-1-benzothien-2-yl]carbonyl}piperidin-4-yl)azetidin-3-yl]acetonitrile]	≤ 5	2.7	≤ 10
